# Earlier results as cited in patent US20110064750A1, “METHOD AND KIT FOR TREATING NICOTINE ADDICTION” (Nabi Biopharmaceuticals, priority 2009, published 2011).
# Like-named read-outs stand apart in the source and are kept apart here.
# Tests used:
# smoking abstinence [1] = details: 12 week course, varenicline 1.0 mg bid, bupropion 150 mg SR bid, carbon-monoxide confirmed
# smoking abstinence [2] = system: smoking abstinence
# [3] = target: α3β2 nicotinic acetylcholine receptors (Homo sapiens, UniProt P17787+P32297); details: blocking nicotine activation of nAChRs
# [4] = target: α4β2 nicotinic acetylcholine receptors (Homo sapiens, UniProt P17787+P43681); details: blocking nicotine activation of nAChRs
# [5] = system: neuronal uptake of norepinephrine and dopamine
# smoking cessation = details: for Time at which efficacy generally is apparent: previous studies
# [6] = salt form, powder
# α4β2 nicotinic receptors = α4β2 nicotinic receptors (Homo sapiens, UniProt P17787+P43681); details: stimulating receptor-mediated activity at a significantly lower level than nicotine
# Sequence of α4β2 nicotinic receptors (P43681 29-627 limits assumed): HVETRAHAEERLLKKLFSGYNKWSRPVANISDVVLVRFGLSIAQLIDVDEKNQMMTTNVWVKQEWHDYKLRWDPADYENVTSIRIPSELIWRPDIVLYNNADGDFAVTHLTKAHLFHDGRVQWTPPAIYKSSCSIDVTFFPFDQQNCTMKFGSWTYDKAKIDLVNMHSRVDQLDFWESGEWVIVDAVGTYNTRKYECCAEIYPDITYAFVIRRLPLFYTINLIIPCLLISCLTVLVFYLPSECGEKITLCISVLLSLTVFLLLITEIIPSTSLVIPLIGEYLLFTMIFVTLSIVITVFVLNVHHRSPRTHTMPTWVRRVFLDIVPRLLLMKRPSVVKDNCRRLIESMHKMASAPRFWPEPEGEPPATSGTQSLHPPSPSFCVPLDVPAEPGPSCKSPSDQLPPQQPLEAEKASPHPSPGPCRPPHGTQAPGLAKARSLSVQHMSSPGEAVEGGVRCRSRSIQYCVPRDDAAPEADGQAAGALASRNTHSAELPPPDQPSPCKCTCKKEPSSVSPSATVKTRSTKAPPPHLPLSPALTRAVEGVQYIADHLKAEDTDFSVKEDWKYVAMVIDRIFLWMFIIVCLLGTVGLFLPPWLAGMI
# Sequence of α4β2 nicotinic receptors (P17787 26-502): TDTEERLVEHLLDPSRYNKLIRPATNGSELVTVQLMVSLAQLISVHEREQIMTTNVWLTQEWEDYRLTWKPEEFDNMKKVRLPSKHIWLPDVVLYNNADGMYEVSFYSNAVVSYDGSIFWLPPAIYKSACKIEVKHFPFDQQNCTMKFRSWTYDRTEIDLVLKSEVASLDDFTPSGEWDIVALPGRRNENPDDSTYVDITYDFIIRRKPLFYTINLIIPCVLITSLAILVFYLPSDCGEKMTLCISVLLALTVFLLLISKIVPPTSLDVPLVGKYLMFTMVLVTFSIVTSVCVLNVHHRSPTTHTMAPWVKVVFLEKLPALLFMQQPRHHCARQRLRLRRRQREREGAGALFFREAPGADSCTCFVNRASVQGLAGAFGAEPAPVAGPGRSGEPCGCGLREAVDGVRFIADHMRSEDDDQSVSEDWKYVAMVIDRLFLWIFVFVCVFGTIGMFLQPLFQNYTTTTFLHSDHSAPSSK
# Sequence of α4β2 nicotinic acetylcholine receptors (P43681 29-627 limits assumed): as the sequence (P43681 29-627 limits assumed) above
# Sequence of α4β2 nicotinic acetylcholine receptors (P17787 26-502): as the sequence (P17787 26-502) above
# Sequence of α3β2 nicotinic acetylcholine receptors (P32297 32-505): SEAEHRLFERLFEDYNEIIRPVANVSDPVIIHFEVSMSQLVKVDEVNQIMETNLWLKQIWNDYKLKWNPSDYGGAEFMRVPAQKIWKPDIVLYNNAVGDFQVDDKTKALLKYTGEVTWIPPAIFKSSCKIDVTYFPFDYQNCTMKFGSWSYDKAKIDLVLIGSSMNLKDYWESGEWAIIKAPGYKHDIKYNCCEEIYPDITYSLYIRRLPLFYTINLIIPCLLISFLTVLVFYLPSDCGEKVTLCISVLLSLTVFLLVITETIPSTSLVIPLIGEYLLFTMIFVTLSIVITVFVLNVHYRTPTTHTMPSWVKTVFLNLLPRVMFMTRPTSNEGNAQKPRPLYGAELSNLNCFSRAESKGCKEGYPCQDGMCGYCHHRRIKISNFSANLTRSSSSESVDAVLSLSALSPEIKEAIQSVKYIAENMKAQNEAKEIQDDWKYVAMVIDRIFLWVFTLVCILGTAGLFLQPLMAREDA
# Sequence of α3β2 nicotinic acetylcholine receptors (P17787 26-502): as the sequence (P17787 26-502) above
compound,measurement,setting,value
"CC(NC(C)(C)C)C(=O)c1cccc(Cl)c1.Cl (stereo not shown) [Bupropion, Bupropion hydrochloride]",Continuous Abstinence Rate (Wks 9-12),smoking abstinence [1]; Study A,16%
same,Continuous Abstinence Rate (Wks 9-12),smoking abstinence [1]; Study B,14%
same,Abstinence from week 4 through Week 7 (4-week quit),smoking abstinence [2]; 100 mg/day,22%
same,Abstinence from week 4 through Week 12,smoking abstinence [2]; 100 mg/day,20%
same,Abstinence from week 4 through Week 26,smoking abstinence [2]; 100 mg/day,16%
same,Abstinence from week 4 through Week 7 (4-week quit),smoking abstinence [2]; 150 mg/day,27%
same,Abstinence from week 4 through Week 12,smoking abstinence [2]; 150 mg/day,20%
same,Abstinence from week 4 through Week 26,smoking abstinence [2]; 150 mg/day,18%
same,Abstinence from week 4 through Week 7 (4-week quit),smoking abstinence [2]; 300 mg/day,36%
same,Abstinence from week 4 through Week 12,smoking abstinence [2]; 300 mg/day,25%
same,Abstinence from week 4 through Week 26,smoking abstinence [2]; 300 mg/day,19%
same,Times more effective in blocking α3β2 than α7,[3],50 times
same,Times more effective in blocking α4β2 than α7,[4],12 times
same,Inhibition of the neuronal uptake of norepinephrine and dopamine,[5],relatively weak inhibitor
same,Inhibition of monoamine oxidase,monoamine oxidase,does not inhibit
same,Time at which efficacy may diminish,smoking cessation; even though administration is ongoing,after about six or seven weeks
same,Chances of quitting smoking compared with placebo,smoking cessation; in vivo,double
same,Nicotine craving and nicotine withdrawal symptoms,smoking cessation; in vivo,lower
same,Time at which efficacy generally is apparent,smoking cessation,one week after the first dose
same,Solubility in water,[6],highly soluble in water
"c1cnc2cc3c(cc2n1)[C@@H]1CNC[C@H]3C1 [Varenicline, 7,8,9,10-tetrahydro-6,10-methano-6H-pyrazino[2,3-h][3]benzazpine, (2R,3R)-2,3-dihydroxybutanedioate(1:1)]",Continuous Abstinence Rate (Wks 9-12),smoking abstinence [1]; Study A,21%
same,Continuous Abstinence Rate (Wks 9-12),smoking abstinence [1]; Study B,22%
same,Agonist activity at α4β2 nicotinic receptors,α4β2 nicotinic receptors,low level agonist
same,Time at which efficacy generally is apparent,smoking cessation,one week after the first dose
same,Solubility in water,[6],highly soluble in water
